Laboratory results: US10457678B2, “Substituted pyrrolo[2,3-b]pyridines as inhibitors of cellular necroptosis” (Institut National de la Sante et de la Recherche Medicale …, priority 2015, dated 2019)
“Also recorded” adds a separate entry of the source. Where two headings read alike, the source gives them in different places.

What was measured:
[1] = test system: Jurkat FADD-deficient I 2.1 cell line; test: Cell-based screening: necroptosis induced by TNF-α in Jurkat FADD-deficient cells, MTS viability assay; design: species or system human; conditions: for EC50: Homo sapiens, Jurkat FADD-deficient cells, TNF-α 10 ng/ml, 24 hours, MTS viability assay; for inhibition of necroptosis induced by TNF-α: human T lymphocyte, Jurkat FADD deficient cell line
Description: (§1) TNF-α can induce necroptosis in Jurkat cells (human T lymphocytes) when FADD was deleted. This model was used to screen various libraries of chemical compounds for characterization of new inhibitors of cellular necroptosis. Details on this cell-based assay can be found in Miao and Degterev (Methods Mol. Biol. 2009, 559, 79-93). The Jurkat FADD-deficient I 2.1 cell line used was purchased from ATCC and was maintained in RPMI 1640 medium (Gibco) containing Glutamax and 15% fetal calf serum (Life Technology). Necroptosis was induced by addition of 10 ng/ml of human recombinant TNF-α (Life Technology). Necrostatin-1 (Nec-1, Enzo Life Sciences) was used as model necroptosis inhibitor. Cells were maintained in 75 cm^2 flask and passed every 2 or 3 days. Chemical collections analysed were formatted in 96-well plates with 80 molecules per plates at 10 mM in 100% DMSO. For each collection plate, 2 cell plates were seeded (one necroptosis-induced with TNF-α and the other without TNF-α). Cells were seeded at 20000 cells/well, in 40 μl of medium, in a 96-well clear, flat bottom plate (CytoOne, Starlab) before treatment. Then, 40 μl of medium with or without TNF-α at 25 ng/ml were added to all wells in the corresponding plate. Immediately after TNF-α addition, 20 μl of diluted compound at 50 μM were added to the plates. Final concentration of each chemical compound was 10 μM at 0.1% DMSO. Four positives (Nec-1 at 10 μM final) and four negative (DMSO) controls were used in each plate to validate the assay. Cells were incubated at 37° C., 5% CO2 for 24 hours before performing MTS viability assay, described hereafter. Compounds were diluted before to treat cells. Liquid handling was performed using the Nimbus Microlab liquid handler (Hamilton Robotics) under microbiological safety workbench. The 10 mM compounds were diluted at 50 μM directly in cell medium.

[2] = test system: L929sAhFas; test: Necroptosis induced by FasL + zVAD-fmk in L929sAhFas cells; format: cell-based; conditions: Mus musculus
Protocol: (§2) Besides, the EC50 of compound 7, compound 10 and necrostatin-1 (Nec-1) were determined in mouse or human cellular models of necroptosis induced by FasL+zVAD-fmk (a pan-caspase inhibitor), TRAIL+zVAD-fmk+Bp (Birinapant, a Smac mimetics) or TNF, and by using two cytotoxic assays (MTS Cell Proliferation assay or intracellular ATP level).

[3] = test system: HT29; test: Necroptosis induced by TRAIL + zVAD-fmk + Bp (Birinapant) in HT29 cells; format: cell-based, human; conditions: for anti-necroptotic effect by inducer (in words, summary of Table 1): TNF-, TRAIL- or FasL-induced necroptosis in mouse or human cellular models; for EC50: Homo sapiens, HT-29, HT29, TRAIL + Zvad + Bp
Protocol: as §2

[4] = test system: Jurkat Fadd−/−; test: Necroptosis induced by TNF in Jurkat Fadd−/− cells (Table 1); format: cell-based; conditions: Homo sapiens
Description: as §1, §2

[5] = biological target: T1, Human RIPK1 full length GST-tagged (Homo sapiens, UniProt Q13546); test: RIPK1 autophosphorylation assay; format: biochemical; conditions: [γ-32P] ATP, radiographic film, FIG. 5
T1 construct: Human RIPK1 full length GST-tagged was baculovirally expressed in Sf9 cells; GST; made in house; host or cells: Sf9 insect cells (baculovirus, Bac-to-Bac expression system, Invitrogen)
T1 sequence (Q13546 1-671): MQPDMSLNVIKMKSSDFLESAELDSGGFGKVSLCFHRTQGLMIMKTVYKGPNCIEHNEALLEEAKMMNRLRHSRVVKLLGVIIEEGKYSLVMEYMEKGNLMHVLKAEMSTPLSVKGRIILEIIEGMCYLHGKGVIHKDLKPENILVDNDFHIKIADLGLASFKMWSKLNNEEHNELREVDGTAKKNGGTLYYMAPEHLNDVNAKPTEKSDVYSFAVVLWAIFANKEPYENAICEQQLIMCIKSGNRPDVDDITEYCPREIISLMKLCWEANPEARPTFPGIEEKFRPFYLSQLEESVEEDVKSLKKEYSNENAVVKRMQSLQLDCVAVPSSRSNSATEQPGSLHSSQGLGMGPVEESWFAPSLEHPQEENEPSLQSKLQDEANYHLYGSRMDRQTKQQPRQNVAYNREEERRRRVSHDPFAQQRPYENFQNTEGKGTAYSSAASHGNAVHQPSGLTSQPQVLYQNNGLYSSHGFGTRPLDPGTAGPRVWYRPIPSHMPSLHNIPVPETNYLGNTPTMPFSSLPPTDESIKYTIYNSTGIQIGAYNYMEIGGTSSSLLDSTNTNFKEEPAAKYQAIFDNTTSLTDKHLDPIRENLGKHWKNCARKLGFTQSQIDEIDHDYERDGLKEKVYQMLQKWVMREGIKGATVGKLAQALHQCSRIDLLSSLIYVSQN
Protocol: RIPK1 Autophosphorylation Assay: Human RIPK1 full length GST-tagged was baculovirally expressed in Sf9 cells according to manufacturer's instructions (Bac-to-Bac expression system, Invitrogen) and purified using gluthation-sepharose beads (GE Healthcare). The elution was made in 50 mM Tris-HCl, pH 8.0 buffer supplemented with 30 mM reduced gluthatione (Sigma). The protocol used to detect the enzymatic activity is adapted from Miao and Degterev (Methods Mol. Biol. 2009, 559, 79-93). Kinase reaction was initiated mixing 5 μl of eluted RIPK1, 5 μl of 3× kinase reaction buffer (5 mM MOPS pH 7.2, 2.5 mM β-glycerophosphate, 4 mM MgCl2, 2.5 mM MnCl2, 1 mM EGTA, 0.4 mM EDTA, 50 μg/ml BSA, 0.05 mM DTT), 2 μl H2O and 3 μl of the tested molecule. The mixture was kept on ice for 10 minutes. During the incubation, the ATP solution was prepared by mixing 5 μl of 3× kinase reaction buffer, 4 μl H2O, 6 μl cold ATP at 150 μM and 2 μCi of [γ-^32P] ATP. Add the ATP solution and the tested inhibitor to the kinase and incubate for 30 minutes at 30° C. To stop the enzymatic reaction, 5 μl of loading buffer were added and solution was heated for 3 minutes at 95° C. 25 μl of each reaction were loaded per well in pre-cast NuPage 12% Bis-Tris gel (Life Technology). Autophosphorylated RIPK1 band was visualized on radiographic film after 6 h exposition at −80° C.

[6] = MTS Cell Proliferation assay, read-out: EC50, MTS
[7] = intracellular ATP level, read-out: EC50, ATP level

With CCOc1ccc(-c2cc3cccn(C(=O)N(CC)CC)c-3n2)cc1 [Compound 7, 2-(4-ethoxyphenyl)-N,N-diethyl-7H-pyrrolo[2,3-b]pyridine-7-carboxamide] the EC50 [1] was 7000 nM, the “inhibition of necroptosis induced by TNF-α” value (“inhibition … by TNF-α” below) [1] was “dose-dependent inhibition” and the EC50 [2, 6] was 10 µM. The EC50 [2, 7] was 5 µM, the “anti-necroptotic effect by inducer (in words, summary of Table 1)” value [3] was “only inhibits TNF- or FasL-induced necroptosis” and the EC50 [4, 6] was 10 µM. For the same compound, the EC50 [4, 7] was 9.3 µM.

For CCOc1ccc(-c2cc3cccnc3n2C(C)=O)cc1 [Compound 10, 1-(2-(4-ethoxyphenyl)-1H-pyrrolo[2,3-b]pyridin-1-yl)ethan-1-one], the EC50 [1] was 1700 nM, the “inhibition … by TNF-α” value [1] was “dose-dependent inhibition” and the EC50 [2, 6] was 3.5 µM. The EC50 [2, 7] was 5 µM, the EC50 [3, 6] was 4 µM and the EC50 [3, 7] was 5 µM. The “anti-necroptotic effect by inducer (in words, summary of Table 1)” value [3] was “inhibits TNF-, TRAIL- or FasL-induced necroptosis”, the EC50 [4, 6] was 4 µM and the EC50 [4, 7] was 2.6 µM. The “inhibition of RIPK1 autophosphorylation (in words)” value [5] was “dose-dependent inhibition; also recorded: inhibits, in a dose-dependent fashion”.

For CCOc1ccc(-c2cc3cccnc3n2C(=O)OC(C)(C)C)cc1 [Compound 17, tert-butyl 2-(4-ethoxyphenyl)-1H-pyrrolo[2,3-b]pyridine-1-carboxylate], the EC50 [1] was 3000 nM and the “inhibition … by TNF-α” value [1] was “dose-dependent inhibition”.

CCOc1ccc(-c2cc3cccn(C(=O)OCc4ccccc4)c-3n2)cc1 [Compound 21, benzyl 2-(4-ethoxyphenyl)-7H-pyrrolo[2,3-b]pyridine-7-carboxylate] was tested, and the EC50 [1] was 5000 nM and the “inhibition … by TNF-α” value [1] was “dose-dependent inhibition”.

For CCOc1ccc(-c2cc3c(Cl)ccnc3n2C(=O)OC(C)(C)C)cc1 [Compound 26, tert-butyl 4-chloro-2-(4-ethoxyphenyl)-1H-pyrrolo[2,3-b]pyridine-1-carboxylate], the EC50 [1] was 2400 nM and the “inhibition … by TNF-α” value [1] was “dose-dependent inhibition”.

CCOc1ccc(-c2cc3cccnc3n2C(=O)OCC(Cl)(Cl)Cl)cc1 [Compound 32, 2,2,2-trichloroethyl 2-(4-ethoxyphenyl)-1H-pyrrolo[2,3-b]pyridine-1-carboxylate] was tested, and the EC50 [1] was 2500 nM and the “inhibition … by TNF-α” value [1] was “dose-dependent inhibition”.

In the case of CCOc1ccc(-c2cc3cccnc3n2C(=O)N2CCN(S(C)(=O)=O)C2=O)cc1 [Compound 33, 1-(2-(4-ethoxyphenyl)-1H-pyrrolo[2,3-b]pyridine-1-carbonyl)-3-(methylsulfonyl) imidazolidin-2-one], the EC50 [1] is reported as 1000 nM and the “inhibition … by TNF-α” value [1] is reported as “dose-dependent inhibition”.

In the case of CCOc1ccc(-c2cc3cccn(C(=O)N(C(C)C)C(C)C)c-3n2)cc1 [Compound 34, 2-(4-ethoxyphenyl)-N,N-diisopropyl-7H-pyrrolo[2,3-b]pyridine-7-carboxamide], the EC50 [1] is reported as 2000 nM and the “inhibition … by TNF-α” value [1] is reported as “dose-dependent inhibition”.

In the case of CCOc1ccc(-c2cc3cccn(C(=O)N4CCCC4)c-3n2)cc1 [Compound 35, (2-(4-ethoxyphenyl)-7H-pyrrolo[2,3-b]pyridin-7-yl)(pyrrolidin-1-yl)methanone], the EC50 [1] is reported as 3500 nM and the “inhibition … by TNF-α” value [1] is reported as “dose-dependent inhibition”.

In the case of CCOc1ccc(-c2cc3cccn(C(=O)N4CCN(C)CC4)c-3n2)cc1 [Compound 36, (2-(4-ethoxyphenyl)-7H-pyrrolo[2,3-b]pyridin-7-yl) (4-methylpiperazin-1-yl)methanone], the EC50 [1] is reported as 1050 nM and the “inhibition … by TNF-α” value [1] is reported as “dose-dependent inhibition”.

Work on CN1C(=O)C(Cc2c[nH]c3ccccc23)NC1=S (stereo not drawn) [Nec-1, necrostatin-1, reference compound] yielded an EC50 [2, 6] of 10 µM, an EC50 [2, 7] of 10 µM and an EC50 [3, 6] of 1.2 µM. The EC50 [3, 7] was 2 µM, the EC50 [4, 6] was 1.3 µM and the EC50 [4, 7] was 1.3 µM.
